Test results: US7901700B2, “Bifenthrin/acetamiprid compositions for control of general household pests” (FMC Corporation, priority 2004, dated 2011)

Key:
House Flies = assay: House fly knockdown and mortality, hand held sprayer application; format: in vivo
Experimental: The compositions of the present invention were tested for house fly activity in the following manner:
(§1) Test compositions made up of TALSTARONE® MULTI-INSECTICIDE and a 70% wettable powder of acetamiprid in distilled water were prepared that provided appropriate rates of application of combinations of bifenthrin and acetamiprid, as well as bifenthrin and acetamiprid alone.
A DeVilbiss hand held sprayer was used to deliver the treatment solution at the desired volume and pressure. The house flies to be treated were collected and placed in screened 16 oz paper cups. The hand held sprayer was activated and the test compound was applied to each paper cup interior. House fly knockdown and mortality were measured.

Red Imported Fire Ant = assay: Red imported fire ant knockdown and mortality, spray chamber application; format: in vivo, Solenopsis invicta
Experimental: The compositions of the present invention were tested for red imported fire ant activity in the following manner:
as §1
(§2) The spray chamber was then calibrated to deliver the treatment solution at the desired volume and pressure over the desired area on the chamber shelf. Spray chamber shelf height was adjusted to approximately 18 inches from the spray tip. The shelf was then covered with aluminum foil and the center of the shelf from front-to-back and end-to-end was determined. The red imported fire ants to be treated were collected and placed in screened 16 oz paper cups. The paper cups were placed onto the aluminum foil on the spray chamber shelf. The sprayer was activated and the test compound was applied to each paper cup interior. Red imported fire ant knockdown and mortality were measured.

German cockroach = German cockroach knockdown and mortality, spray chamber application; format: in vivo
Experimental: The compositions of the present invention were tested for German cockroach activity in the following manner:
as §1
The spray chamber was then calibrated to deliver the treatment solution at the desired volume and pressure over the desired area on the chamber shelf. Spray chamber shelf height was adjusted to approximately 18 inches from the spray tip. The shelf was then covered with aluminum foil and the center of the shelf from front-to-back and end-to-end was determined. A desired number of 4.0″ sieve circles were marked on the aluminum foil with a permanent marker. The inside of a desired number of PVC rings were coated with a petroleum jelly/mineral oil mixture (1:2 ratio). The PVC rings were place on the sieve circles. 10 male German cockroaches were placed inside each PVC ring. The sprayer was activated and the test compound was applied to each PVC ring interior. German cockroach knockdown and mortality were measured.

Bed Bugs = assay: Bed bug mortality, spray chamber application; format: in vivo
Experimental: The compositions of the present invention were tested for bed bug activity in the following manner:
as §1
as §2, with “approximately 10.5” for “approximately 18”, “The bed bugs” for “The red imported fire ants”, “interior. Bed bug” for “interior. Red imported fire ant knockdown and”, “mortality was” for “mortality were”

[1] = Rate of Appln. 100 PPM (0.01% by weight)
[2] = Rate of Appln. 200 PPM (0.02% by weight)
[3] = Rate of Appln. 125 PPM (0.0125% by weight)
[4] = Rate of Appln. 250 PPM (0.025% by weight)
[5] = Rate of Appln. 500 PPM (0.05% by weight)
[6] = Rate of Appln. 50 PPM (0.005% by weight)
[7] = Rate of Appln. 1000 PPM (0.10% by weight)
[8] = Rate of Appln. 10 PPM (0.001% by weight)
[9] = Rate of Appln. 300 PPM (0.03% by weight)
[10] = Rate of Appln. 600 PPM (0.06% by weight)

`C/C(=N\C#N)N(C)Cc1ccc(Cl)nc1` [B, (E)-N^1-[(6-chloro-3-pyridyl)methyl]-N^2-cyano-N^1-methylacetamidine] was tested, and the “Knockdown Rate @ 15 minutes” value (House Flies; [1]) was 47%, the “Knockdown Rate @ 30 minutes” value (House Flies; [1]) was 47% and the “Knockdown Rate @ 60 minutes” value (House Flies; [1]) was 53%. For the same compound, the “Knockdown Rate @ 120 minutes” value (House Flies; [1]) was 41%, the “Knockdown Rate @ 240 minutes” value (House Flies; [1]) was 53% and the “Mortality Rate @ 1 day” value (House Flies; [1]) was 16%. For the same compound, the “Knockdown Rate @ 15 minutes” value (House Flies; [2]) was 69%, the “Knockdown Rate @ 30 minutes” value (House Flies; [2]) was 86% and the “Knockdown Rate @ 60 minutes” value (House Flies; [2]) was 72%. For the same compound, the “Knockdown Rate @ 120 minutes” value (House Flies; [2]) was 72%, the “Knockdown Rate @ 240 minutes” value (House Flies; [2]) was 78% and the “Mortality Rate @ 1 day” value (House Flies; [2]) was 28%. The “Knockdown Rate @ 10 minutes” value (Red Imported Fire Ant; [3]) was 0%, the “Knockdown Rate @ 15 minutes” value (Red Imported Fire Ant; [3]) was 0% and the “Knockdown Rate @ 30 minutes” value (Red Imported Fire Ant; [3]) was 10%. For the same compound, the “Mortality Rate @ 60 minutes” value (Red Imported Fire Ant; [3]) was 5%, the “Mortality Rate @ 120 minutes” value (Red Imported Fire Ant; [3]) was 65% and the “Mortality Rate @ 240 minutes” value (Red Imported Fire Ant; [3]) was 90%. The “Knockdown Rate @ 10 minutes” value (Red Imported Fire Ant; [4]) was 10%, the “Knockdown Rate @ 15 minutes” value (Red Imported Fire Ant; [4]) was 3% and the “Knockdown Rate @ 30 minutes” value (Red Imported Fire Ant; [4]) was 5%. For the same compound, the “Mortality Rate @ 60 minutes” value (Red Imported Fire Ant; [4]) was 13%, the “Mortality Rate @ 120 minutes” value (Red Imported Fire Ant; [4]) was 98% and the “Mortality Rate @ 240 minutes” value (Red Imported Fire Ant; [4]) was 100%. For the same compound, the “Knockdown Rate @ 10 minutes” value (Red Imported Fire Ant; [5]) was 0%, the “Knockdown Rate @ 15 minutes” value (Red Imported Fire Ant; [5]) was 15% and the “Knockdown Rate @ 30 minutes” value (Red Imported Fire Ant; [5]) was 15%. The “Mortality Rate @ 60 minutes” value (Red Imported Fire Ant; [5]) was 60%, the “Mortality Rate @ 120 minutes” value (Red Imported Fire Ant; [5]) was 100% and the “Mortality Rate @ 240 minutes” value (Red Imported Fire Ant; [5]) was 100%. The “Knockdown Rate @ 10 minutes” value (German cockroach; [6]) was 0%, the “Knockdown Rate @ 15 minutes” value (German cockroach; [6]) was 13% and the “Knockdown Rate @ 30 minutes” value (German cockroach; [6]) was 38%. The “Mortality Rate @ 60 minutes” value (German cockroach; [6]) was 53%, the “Mortality Rate @ 240 minutes” value (German cockroach; [6]) was 63% and the “Knockdown Rate @ 10 minutes” value (German cockroach; [1]) was 0%. The “Knockdown Rate @ 15 minutes” value (German cockroach; [1]) was 8%, the “Knockdown Rate @ 30 minutes” value (German cockroach; [1]) was 38% and the “Mortality Rate @ 60 minutes” value (German cockroach; [1]) was 58%. The “Mortality Rate @ 240 minutes” value (German cockroach; [1]) was 63%, the “Knockdown Rate @ 10 minutes” value (German cockroach; [4]) was 10% and the “Knockdown Rate @ 15 minutes” value (German cockroach; [4]) was 35%. The “Knockdown Rate @ 30 minutes” value (German cockroach; [4]) was 75%, the “Mortality Rate @ 60 minutes” value (German cockroach; [4]) was 88% and the “Mortality Rate @ 120 minutes” value (German cockroach; [4]) was 90%. For the same compound, the “Mortality Rate @ 240 minutes” value (German cockroach; [4]) was 83%, the “Knockdown Rate @ 10 minutes” value (German cockroach; [5]) was 8% and the “Knockdown Rate @ 15 minutes” value (German cockroach; [5]) was 45%. The “Knockdown Rate @ 30 minutes” value (German cockroach; [5]) was 88%, the “Mortality Rate @ 60 minutes” value (German cockroach; [5]) was 80% and the “Mortality Rate @ 120 minutes” value (German cockroach; [5]) was 98%. The “Mortality Rate @ 240 minutes” value (German cockroach; [5]) was 80%, the “Knockdown Rate @ 10 minutes” value (German cockroach; [7]) was 38% and the “Knockdown Rate @ 15 minutes” value (German cockroach; [7]) was 75%. For the same compound, the “Knockdown Rate @ 30 minutes” value (German cockroach; [7]) was 93%, the “Mortality Rate @ 60 minutes” value (German cockroach; [7]) was 100% and the “Mortality Rate @ 120 minutes” value (German cockroach; [7]) was 98%. The “Mortality Rate @ 240 minutes” value (German cockroach; [7]) was 80%, the “Mortality Rate @ 2 hours” value (Bed Bugs; [4]) was 30% and the “Mortality Rate @ 1 day” value (Bed Bugs; [4]) was 95%. For the same compound, the “Mortality Rate @ 2 hours” value (Bed Bugs; [5]) was 60%, the “Mortality Rate @ 1 day” value (Bed Bugs; [5]) was 100% and the “Mortality Rate @ 2 hours” value (Bed Bugs; [7]) was 95%. For the same compound, the “Mortality Rate @ 1 day” value (Bed Bugs; [7]) was 100%.

For `Cc1c(COC(=O)[C@@H]2[C@H](/C=C(\Cl)C(F)(F)F)C2(C)C)cccc1-c1ccccc1` (racemic) [A, 2-methylbiphenyl-3-ylmethyl(Z)-(1RS)-cis-3-(2-chloro-3,3,3-trifluoroprop-1-enyl)-2,2-dimethylcyclopropanecarboxylate], the “Knockdown Rate @ 15 minutes” value (House Flies; [8]) was 0%, the “Knockdown Rate @ 30 minutes” value (House Flies; [8]) was 0% and the “Knockdown Rate @ 60 minutes” value (House Flies; [8]) was 19%. The “Knockdown Rate @ 120 minutes” value (House Flies; [8]) was 19%, the “Knockdown Rate @ 240 minutes” value (House Flies; [8]) was 48% and the “Mortality Rate @ 1 day” value (House Flies; [8]) was 3%. The “Knockdown Rate @ 15 minutes” value (House Flies; [6]) was 0%, the “Knockdown Rate @ 30 minutes” value (House Flies; [6]) was 19% and the “Knockdown Rate @ 60 minutes” value (House Flies; [6]) was 59%. The “Knockdown Rate @ 120 minutes” value (House Flies; [6]) was 63%, the “Knockdown Rate @ 240 minutes” value (House Flies; [6]) was 100% and the “Mortality Rate @ 1 day” value (House Flies; [6]) was 63%. The “Knockdown Rate @ 10 minutes” value (Red Imported Fire Ant; [9]) was 63%, the “Knockdown Rate @ 15 minutes” value (Red Imported Fire Ant; [9]) was 100% and the “Knockdown Rate @ 30 minutes” value (Red Imported Fire Ant; [9]) was 100%. For the same compound, the “Mortality Rate @ 60 minutes” value (Red Imported Fire Ant; [9]) was 100%, the “Mortality Rate @ 120 minutes” value (Red Imported Fire Ant; [9]) was 100% and the “Mortality Rate @ 240 minutes” value (Red Imported Fire Ant; [9]) was 100%. The “Knockdown Rate @ 10 minutes” value (Red Imported Fire Ant; [10]) was 78%, the “Knockdown Rate @ 15 minutes” value (Red Imported Fire Ant; [10]) was 100% and the “Knockdown Rate @ 30 minutes” value (Red Imported Fire Ant; [10]) was 100%. For the same compound, the “Mortality Rate @ 60 minutes” value (Red Imported Fire Ant; [10]) was 100%, the “Mortality Rate @ 120 minutes” value (Red Imported Fire Ant; [10]) was 100% and the “Mortality Rate @ 240 minutes” value (Red Imported Fire Ant; [10]) was 100%. For the same compound, the “Knockdown Rate @ 10 minutes” value (German cockroach; [8]) was 0%, the “Knockdown Rate @ 15 minutes” value (German cockroach; [8]) was 3% and the “Knockdown Rate @ 30 minutes” value (German cockroach; [8]) was 23%. For the same compound, the “Mortality Rate @ 60 minutes” value (German cockroach; [8]) was 40%, the “Mortality Rate @ 240 minutes” value (German cockroach; [8]) was 50% and the “Knockdown Rate @ 10 minutes” value (German cockroach; [6]) was 0%. The “Knockdown Rate @ 15 minutes” value (German cockroach; [6]) was 0%, the “Knockdown Rate @ 30 minutes” value (German cockroach; [6]) was 0% and the “Mortality Rate @ 60 minutes” value (German cockroach; [6]) was 38%. For the same compound, the “Mortality Rate @ 240 minutes” value (German cockroach; [6]) was 60%, the “Knockdown Rate @ 10 minutes” value (German cockroach; [2]) was 0% and the “Knockdown Rate @ 15 minutes” value (German cockroach; [2]) was 3%. For the same compound, the “Knockdown Rate @ 30 minutes” value (German cockroach; [2]) was 45%, the “Mortality Rate @ 60 minutes” value (German cockroach; [2]) was 100% and the “Mortality Rate @ 120 minutes” value (German cockroach; [2]) was 100%. For the same compound, the “Mortality Rate @ 240 minutes” value (German cockroach; [2]) was 100%, the “Knockdown Rate @ 10 minutes” value (German cockroach; [10]) was 0% and the “Knockdown Rate @ 15 minutes” value (German cockroach; [10]) was 8%. For the same compound, the “Knockdown Rate @ 30 minutes” value (German cockroach; [10]) was 60%, the “Mortality Rate @ 60 minutes” value (German cockroach; [10]) was 100% and the “Mortality Rate @ 120 minutes” value (German cockroach; [10]) was 100%. For the same compound, the “Mortality Rate @ 240 minutes” value (German cockroach; [10]) was 100%, the “Mortality Rate @ 2 hours” value (Bed Bugs; [2]) was 85% and the “Mortality Rate @ 1 day” value (Bed Bugs; [2]) was 100%. The “Mortality Rate @ 2 hours” value (Bed Bugs; [10]) was 75% and the “Mortality Rate @ 1 day” value (Bed Bugs; [10]) was 100%.
